A word on the IC50: it is the concentration that inhibits the measured activity by half. Read a high IC50 as weaker potency.

Counter-ions that a name gives are not always drawn.

The experiment addresses T1, DNA polymerase α (Bos taurus, UniProt A0AAA9TD94).
T1 construct: from tissue; host or cells: bovine thymus
T1 sequence (A0AAA9TD94 1-1441): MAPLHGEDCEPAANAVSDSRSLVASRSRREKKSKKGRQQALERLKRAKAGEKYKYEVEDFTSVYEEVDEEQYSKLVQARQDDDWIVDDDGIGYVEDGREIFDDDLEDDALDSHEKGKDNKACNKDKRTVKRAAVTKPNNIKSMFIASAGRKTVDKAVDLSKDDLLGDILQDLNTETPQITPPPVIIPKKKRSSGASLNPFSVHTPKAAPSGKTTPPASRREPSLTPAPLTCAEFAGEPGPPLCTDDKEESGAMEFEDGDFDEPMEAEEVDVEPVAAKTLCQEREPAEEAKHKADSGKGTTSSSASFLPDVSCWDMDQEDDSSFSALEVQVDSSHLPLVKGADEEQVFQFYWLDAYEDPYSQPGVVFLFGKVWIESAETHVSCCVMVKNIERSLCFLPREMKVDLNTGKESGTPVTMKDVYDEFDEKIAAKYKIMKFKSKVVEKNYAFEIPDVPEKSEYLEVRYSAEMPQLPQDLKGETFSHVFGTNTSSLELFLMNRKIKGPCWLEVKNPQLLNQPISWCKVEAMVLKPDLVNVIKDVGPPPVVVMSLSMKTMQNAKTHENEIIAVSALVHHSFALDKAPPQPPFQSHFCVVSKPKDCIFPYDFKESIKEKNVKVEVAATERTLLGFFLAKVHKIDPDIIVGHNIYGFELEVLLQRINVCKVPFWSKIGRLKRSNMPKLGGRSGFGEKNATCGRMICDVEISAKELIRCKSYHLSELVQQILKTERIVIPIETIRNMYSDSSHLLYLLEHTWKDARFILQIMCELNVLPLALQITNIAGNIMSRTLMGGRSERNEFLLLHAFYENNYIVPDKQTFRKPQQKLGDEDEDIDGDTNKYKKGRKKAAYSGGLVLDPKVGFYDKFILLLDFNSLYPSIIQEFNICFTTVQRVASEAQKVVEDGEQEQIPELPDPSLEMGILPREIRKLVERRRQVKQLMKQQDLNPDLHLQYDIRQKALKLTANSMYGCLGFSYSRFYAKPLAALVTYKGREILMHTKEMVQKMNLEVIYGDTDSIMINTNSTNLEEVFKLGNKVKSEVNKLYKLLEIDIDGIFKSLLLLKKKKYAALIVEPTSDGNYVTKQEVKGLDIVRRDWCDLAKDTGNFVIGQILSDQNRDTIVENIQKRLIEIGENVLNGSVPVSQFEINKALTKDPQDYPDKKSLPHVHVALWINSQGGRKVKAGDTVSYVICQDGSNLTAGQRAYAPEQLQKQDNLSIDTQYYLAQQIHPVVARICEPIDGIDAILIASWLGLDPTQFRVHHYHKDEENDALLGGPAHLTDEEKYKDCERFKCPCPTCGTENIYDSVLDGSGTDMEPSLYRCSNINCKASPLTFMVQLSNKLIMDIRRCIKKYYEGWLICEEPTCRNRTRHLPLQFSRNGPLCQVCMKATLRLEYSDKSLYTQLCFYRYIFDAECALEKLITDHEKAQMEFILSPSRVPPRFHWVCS
Put plainly: Assay 1: inhibitory effect against DNA polymerase α ([3H]-dTTP incorporation). The following applies: DNA polymerase α from bovine thymus, 37° C., 60 minutes. The format is biochemical. As to the method: An assay on inhibitory effect against a DNA polymerase α was carried out in the following manner.
0.05 U of a DNA polymerase α purified and isolated from a bovine thymus by an immunoaffinity column was mixed with each of test compounds, sulfopyranosylacylglycerol (hereinafter, simply referred to as “SQAG”) derivatives, namely, SQAG 1, SQAG 2 and SQAG 3 (listed in table 1) dissolved in DMSO. Each mixture was added with a buffer containing inorganic salts for the enzymatic reaction, [^3H]-labeled dTTP and compounds for reaction containing a template DNA strand, and incubated at 37° C. for 60 minutes.
After the enzymatic reaction was quenched, the resultant reaction product was fixed on a dedicated filter and subjected to measurement by a liquid scintillation counter. The amount of enzymatically incorporated dTTP was calculated as a radiation dose (cpm) of [^3H]. Note that, each of the sulfopyranosylacylglycerol derivatives is a mixture of the S- and R-configurations with respect to an absolute configuration of the carbon of the 2-position of the glycerol moiety.
Regarding `CCCC/C=C\CCCCCCCC(=O)OCC(O)CO[C@H]1O[C@H](CS(=O)(=O)O)[C@@H](O)[C@H](O)[C@H]1O` (mixture of isomers) [SQAG1, 3-O-(6-deoxy-6-sulfo-α-D-glucopyranosyl)-1-o-myristoleoly-glycerol sodium salt], the IC50 was 17.1 µM.
Turning to `CCCCCC/C=C\CCCCCCCC(=O)OCC(O)CO[C@H]1O[C@H](CS(=O)(=O)O)[C@@H](O)[C@H](O)[C@H]1O` (stereo partly drawn) [SQAG2, 3-O-(6-deoxy-6-sulfo-α-D-glucopyranosyl)-1-O-palmitoleoyl-glycerol sodium salt], the IC50 was 9.54 µM.
The value for `CCCCCCCC/C=C\CCCCCCCC(=O)OCC(O)CO[C@H]1O[C@H](CS(=O)(=O)O)[C@@H](O)[C@H](O)[C@H]1O` (stereo partly drawn) [SQAG3, 3-O-(6-deoxy-6-sulfo-α-D-glucopyranosyl)-1-O-oleoyl-glycerol Sodium Salt] was 3.31 µM.
